Experimental data: patent US7517987B2, “Caspase inhibitors and uses thereof” (Vertex Pharmaceutical Incorporated, priority 1999, dated 2009)

How the values were obtained:
Caspase-3 = biological target: T1, Caspase-3 (Homo sapiens, UniProt P42574); assay: Caspase-3 enzyme assay, cleavage of fluorogenic substrate; format: biochemical; settings: second order rate constant of enzyme inactivation; substrate Acetyl-Asp-Glu-val-Asp-amino-4-methylcoumarin
T1 sequence (P42574 29-175 limits assumed): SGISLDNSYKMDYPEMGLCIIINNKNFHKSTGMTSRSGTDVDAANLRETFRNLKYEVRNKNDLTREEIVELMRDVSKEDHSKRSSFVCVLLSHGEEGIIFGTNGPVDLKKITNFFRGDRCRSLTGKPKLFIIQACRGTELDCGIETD
T1 sequence (P42574 176-277 limits assumed): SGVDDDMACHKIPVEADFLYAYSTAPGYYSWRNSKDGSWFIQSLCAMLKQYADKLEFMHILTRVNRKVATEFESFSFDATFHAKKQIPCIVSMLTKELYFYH
Source text: (§1) The assays for caspase inhibition are based on the cleavage of a fluorogenic substrate by recombinant, purified human Caspases-1, -3, -7 or -8. The assays are run in essentially the same way as those reported by Garcia-Calvo et al. (J. Biol. Chem. 273 (1998), 32608-32613), using a substrate specific for each enzyme. The substrate for Caspase-1 is Acetyl-Tyr-Val-Ala-Asp-amino-4-methylcoumarin. The substrate for Caspases-3, -7 and -8 is Acetyl-Asp-Glu-val-Asp-amino-4-methylcoumarin.
(§2) The observed rate of enzyme inactivation at a particular inhibitor concentration, kobs, is computed by direct fits of the data to the equation derived by Thornberry et al. (Biochemistry 33 (1994), 3943-3939) using a nonlinear least-squares analysis computer program (PRISM 2.0; GraphPad software). To obtain the second order rate constant, kinact, kobs values are plotted against their respective inhibitor concentrations and kinact values are subsequently calculated by computerized linear regression.

Jurkat E6.1 cells = assay: Anti-Fas induced apoptosis assay; format: cell-based; settings: Homo sapiens, anti-Fas antibody CH-11 10 ng/ml, 16-18 hrs, DNA fragmentation, OD405 nm
Source text: Cellular apoptosis may be induced by the binding of Fas ligand (FasL) to its receptor, CD95 (Fas). CD95 is one of a family of related receptors, known as death receptors, which can trigger apoptosis in cells via activation of the caspase enzyme cascade. The process is initiated by the binding of the adapter molecule FADD/MORT-1 to the cytoplasmic domain of the CD-95 receptor-ligand complex. Caspase-8 then binds FADD and becomes activated, initiating a cascade of events that involve the activation of downstream caspases and subsequent cellular apoptosis. Apoptosis can also be induced in cells expressing CD95 eg the Jurkat E6.1 T cell lymphoma cell line, using an antibody, rather than FasL, to crosslink the cell surface CD95. Anti-Fas-induced apoptosis is also triggered via the activation of caspase-8. This provides the basis of a cell based assay to screen compounds for inhibition of the caspase-8-mediated apoptotic pathway.
Jurkat E6.1 cells are cultured in complete medium consisting of RPMI-1640 (Sigma No)+10% foetal calf serum (Gibco BRL No. 10099-141)+2 mM L-glutamine (Sigma No. G-7513). The cells are harvested in log phase of growth. 100 ml Cells at 5-8×10^5 cells/ml are transferred to sterile 50 ml Falcon centrifuge tubes and centrifuged for 5 minutes at 100×g at room temperature. The supernatant is removed and the combined cell pellets resuspended in 25 ml of complete medium. The cells are counted and the density adjusted to 2×10^6cells/ml with complete medium.
The test compound is dissolved in dimethyl sulphoxide (DMSO)(Sigma No. D-2650) to give a 100 mM stock solution. This is diluted to 400 μM in complete medium, then serially diluted in a 96-well plate prior to addition to the cell assay plate.
100 μl of the cell suspension ([…]) is added to each well of a sterile 96-well round-bottomed cluster plate (Costar No. 3790). 501l of compound solution at the appropriate dilution and 50 μl of anti-Fas antibody, clone CH-11 (Kamiya No.MC-060) at a final concentration of 10 ng/ml, are added to the wells. Control wells are set up minus antibody and minus compound but with a serial dilution of DMSO as vehicle control. The plates are incubated for 16-18 hrs at 37° C. in 5% CO2 and 95% humidity.
Apoptosis of the cells is measured by the quantitation of DNA fragmentation using a ‘Cell Death Detection Assay’ from Boehringer-Mannheim, No. 1544 675. After incubation for 16-18 hrs the assay plates are centrifuged at 100×g at room temperature for 5 minutes. 150 μl of the supernatant are removed and replaced by 150 μl of fresh complete medium. The cells are then harvested and 200 μl of the lysis buffer supplied in the assay kit are added to each well. The cells are triturated to ensure complete lysis and incubated for 30 minutes at 4° C. The plates are then centrifuged at 1900×g for 10 minutes and the supernatants diluted 1:20 in the incubation buffer provided. 100 μl of this solution is then assayed exactly according to the manufacturer's instructions supplied with the kit. OD405 nm is measured 20 minutes after addition of the final substrate in a SPECTRAmax Plus plate reader (Molecular Devices). OD405 nm is plotted versus compound concentration and the IC50 values for the compounds are calculated using the curve fitting program SOFTmax Pro (Molecular Devices) using the four parameter fit option.

Caspase-8 = Caspase-8 (Homo sapiens, UniProt Q14790); assay: Caspase-8 enzyme assay, cleavage of fluorogenic substrate; format: biochemical; settings: second order rate constant of enzyme inactivation; substrate Acetyl-Asp-Glu-val-Asp-amino-4-methylcoumarin
Chain of Caspase-8 (Q14790 217-374 limits assumed): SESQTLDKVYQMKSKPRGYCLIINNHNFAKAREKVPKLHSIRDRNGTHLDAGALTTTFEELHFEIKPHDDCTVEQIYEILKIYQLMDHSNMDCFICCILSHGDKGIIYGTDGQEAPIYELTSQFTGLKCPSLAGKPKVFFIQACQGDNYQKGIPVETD
Chain of Caspase-8 (Q14790 385-479 limits assumed): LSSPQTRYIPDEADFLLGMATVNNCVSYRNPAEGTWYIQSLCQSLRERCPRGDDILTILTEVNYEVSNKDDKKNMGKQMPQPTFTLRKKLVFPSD
Source text: as §1, §2

Caspase-1 = biological target: T2, Caspase-1 (Homo sapiens, UniProt P29466); assay: Caspase-1 enzyme assay, cleavage of fluorogenic substrate; format: biochemical; settings: second order rate constant of enzyme inactivation; substrate Acetyl-Tyr-Val-Ala-Asp-amino-4-methylcoumarin
T2 sequence (P29466 120-297 limits assumed): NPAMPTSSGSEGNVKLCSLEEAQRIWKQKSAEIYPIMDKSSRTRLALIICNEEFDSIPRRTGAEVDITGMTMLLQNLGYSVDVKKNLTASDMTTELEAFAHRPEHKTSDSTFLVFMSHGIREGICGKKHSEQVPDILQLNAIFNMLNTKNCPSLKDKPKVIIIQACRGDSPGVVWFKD
T2 sequence (P29466 317-404 limits assumed): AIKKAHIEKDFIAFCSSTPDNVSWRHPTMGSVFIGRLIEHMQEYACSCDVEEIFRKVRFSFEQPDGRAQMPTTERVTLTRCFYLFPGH
Source text: as §1, §2

[1] = test system: IL-1β secretion from peripheral blood mononuclear cells (PBMC); assay: Inhibition of IL-1β secretion from mixed population of PBMC; format: cell-based; settings: Homo sapiens, LPS 50 ng/ml, 16-18 h, mature IL-1β in supernatant
Method: Processing of pre-IL-1β by caspase-1 can be measured in cell culture using a variety of cell sources. Human PBMC obtained from healthy donors provides a mixed population of lymphocyte and mononuclear cells that produce a spectrum of interleukins and cytokines in response to many classes of physiological stimulators.
The test compound is dissolved in dimethyl sulfoxide (DMSO,Sigma #D-2650) to give a 100 mM stock solution. This is diluted in complete medium consisting of RPMI containing 10% heat inactivated FCS (Gibco BRL #10099-141), 2 mM L-Glutamine (Sigma, #G-7513), 100U penicillin and 100 μg/ml streptomycin (Sigma #P-7539). The final concentration range of test compound is from 100 μM down to 6 nM over eight dilution steps. The highest concentration of test compound is equivalent to 0.1% DMSO in the assay.
Human PBMC are isolated from Buffy Coats obtained from the blood bank using centrifugation on Ficoll-Paque leukocyte separation medium (Amersham, #17-1440-O2) and the cellular assay is performed in a sterile 96 well flat-bottomed plate (Nunc). Each well contains 100 μl of the cell suspension, 1×10^5 cells, 50 μl of compound dilutions and 50 μl of LPS (Sigma #L-3012) at 50 ng/ml final concentration. Controls consist of cells ± LPS stimulation and a serial dilution of DMSO diluted in the same way as compound. The plates are incubated for 16-18 h at 37° C. in 5% CO2 & 95% humidity atmosphere.
After 16-18 h the supernatants are harvested after centrifuging the plates at 100×g at 18° C. for 15 min and assayed for their IL-1β content. Measurement of mature IL-1β in the supernatant is performed using the Quantikine kits (R&D Systems) according to manufacturer's instructions. Mature IL-1β levels of about 600-1500 pg/ml are observed for PBMCs in positive control wells.
The inhibitory potency of the compounds can be represented by an IC50 value, which is the concentration of inhibitor at which 50% of the mature IL-1β is detected in the supernatant as compared to the positive controls.

Caspase-7 = biological target: T3, Caspase-7 (Homo sapiens, UniProt P55210); assay: Caspase-7 enzyme assay, cleavage of fluorogenic substrate; format: biochemical; settings: second order rate constant of enzyme inactivation; substrate Acetyl-Asp-Glu-val-Asp-amino-4-methylcoumarin
T3 sequence (P55210 24-198 limits assumed): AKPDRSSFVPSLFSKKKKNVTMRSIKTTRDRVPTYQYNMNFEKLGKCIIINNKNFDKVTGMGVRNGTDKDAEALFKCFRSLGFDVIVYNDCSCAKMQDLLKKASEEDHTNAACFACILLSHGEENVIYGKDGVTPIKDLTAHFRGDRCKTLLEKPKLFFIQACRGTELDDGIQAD
T3 sequence (P55210 207-303 limits assumed): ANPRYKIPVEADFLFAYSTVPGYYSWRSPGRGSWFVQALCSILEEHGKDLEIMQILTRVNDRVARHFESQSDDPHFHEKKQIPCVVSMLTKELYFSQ
Source text: as §1, §2

Compound | Kinact (Caspase-3) | IC50 (Jurkat E6.1 cells) | Caspase-8 Kinact (Caspase-8) | Kinact (Caspase-1) | IC50 [1] | Caspase-7 Kinact (Caspase-7)
Cc1cccc(=O)n1CC(=O)NC(CC(=O)O)C(=O)CF (stereo not drawn) [Compound 1A-3, 5-Fluoro-3-[2-(6-methyl-2-oxo-2H-pyridin-1-yl)-acetylamino]-4-oxo-pentanoic acid] | 51000 M⁻¹ s⁻¹ | 210 nM | 6750 M⁻¹ s⁻¹ | 36000 M⁻¹ s⁻¹ | – | –
O=C(O)CC(NC(=O)Cn1ccc(-c2ccccc2)cc1=O)C(=O)CF (stereo not drawn) [Compound 1A-4, 5-Fluoro-3-[2-(4-phenyl-2-oxo-2H-pyridin-1-yl)-acetylamino]-4-oxo-pentanoic acid] | – | 650 nM | 13500 M⁻¹ s⁻¹ | 40000 M⁻¹ s⁻¹ | – | –
C[C@@H](C(=O)NC(CC(=O)O)C(=O)CF)n1c(=O)ccc2ccccc21 (stereo partly drawn) [Compound 1B-1, 5-Fluoro-4-oxo-3-[(S)-2-(2-oxo-2H-quinolin-1-yl)-propionylamino]-pentanoic acid] | 24000 M⁻¹ s⁻¹ | 140 nM | 12000 M⁻¹ s⁻¹ | 47000 M⁻¹ s⁻¹ | – | –
O=C(O)CC(NC(=O)Cn1ccc2ccccc2c1=O)C(=O)CF (stereo not drawn) [Compound 1C-1, 5-Fluoro-4-oxo-3-[2-(1-oxo-1H-isoquinolin-2-yl)-acetylamino]-pentanoic acid] | 130000 M⁻¹ s⁻¹ | 60 nM | 27000 M⁻¹ s⁻¹ | 248000 M⁻¹ s⁻¹ | 2900 nM | 26000 M⁻¹ s⁻¹
CCC[C@@H](C(=O)NC(CC(=O)O)C(=O)CF)n1cnc2ccccc2c1=O (stereo partly drawn) [Compound 1C-11, 5-Fluoro-4-oxo-3-[(2S)-2-(4-oxo-4H-quinazolin-3-yl)-pentanoylamino]-pentanoic acid] | 185000 M⁻¹ s⁻¹ | 20 nM | 72500 M⁻¹ s⁻¹ | 419000 M⁻¹ s⁻¹ | 400 nM | –
CC(C)[C@@H](C(=O)NC(CC(=O)O)C(=O)CF)N1Cc2ccccc2N(Cc2cccc(Cl)c2)C1=O (stereo partly drawn) [Compound 1D-1, 5-Fluoro-4-oxo-3-[(2S)-2-[1-(3-chlorobenzyl)-2-oxo-1,4-dihydro-2H-quinazolin-3-yl]-3-methyl-butyrylamino]-pentanoic acid] | 67000 M⁻¹ s⁻¹ | 20 nM | 77000 M⁻¹ s⁻¹ | 107000 M⁻¹ s⁻¹ | – | –
O=C(O)CC(NC(=O)Cn1cnc2sccc2c1=O)C(=O)CF (stereo not drawn) [Compound 1E-1, 5-Fluoro-4-oxo-3-[2-(4-oxo-4H-thieno[2,3-d]pyrimidin-3-yl)-acetylamino]-pentanoic acid] | 64000 M⁻¹ s⁻¹ | 70 nM | 13500 M⁻¹ s⁻¹ | 46000 M⁻¹ s⁻¹ | 10000 nM | –
C[C@@H](C(=O)NC(CC(=O)O)C(=O)CF)N1C(=O)c2ccccc2C1=O (stereo partly drawn) [Compound 1F-3, 5-Fluoro-4-oxo-3-[(2S)-2-(1,3-dioxo-1,3-dihydro-isoindol-2-yl)-propionylamino]-pentanoic acid] | 220000 M⁻¹ s⁻¹ | 30 nM | 15500 M⁻¹ s⁻¹ | 115000 M⁻¹ s⁻¹ | 4000 nM | –
CC[C@@H](C(=O)NC(CC(=O)O)C(=O)CF)n1cnccc1=O (stereo partly drawn) [Compound 1G-1, 5-Fluoro-4-oxo-3-[(2S)-2-(6-oxo-6H-pyrimidin-1-yl)-butyrylamino]-pentanoic acid] | 420000 M⁻¹ s⁻¹ | 20 nM | 68500 M⁻¹ s⁻¹ | 307000 M⁻¹ s⁻¹ | 600 nM | 147000 M⁻¹ s⁻¹
